Among the data in PubChem BioAssay AID192 (DTP/NCI, 2004) are T/C values, retold here.

This assay relates to BDF1 mice, B16 melanoma ip, median survival T/C. Description: NCI In Vivo Anticancer Drug Screen. Data for tumor model B16 Melanoma (intraperitoneal) in B6D2F1 (BDF1) mice. As to conditions: endpoint: median survival time, higher = longer survival. Summed up: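 Each result divides a survival or tumor-size measurement in the compound-treated group by the same measurement in the vehicle group.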

[1] abbreviates: dose: 12.5 mg/kg/injection, schedule: Q01DX009 (ip), vehicle: Klucel (hydroxypropylcellulose) (HPC).
[2] abbreviates: dose: 25.0 mg/kg/injection, schedule: Q01DX009 (ip), vehicle: Klucel (hydroxypropylcellulose) (HPC).
The mark [3] stands for this setting: dose: 50.0 mg/kg/injection, schedule: Q01DX009 (ip), vehicle: Klucel (hydroxypropylcellulose) (HPC).
[4] abbreviates: dose: 6.25 mg/kg/injection, schedule: Q01DX009 (ip), vehicle: saline.
[5] abbreviates: dose: 12.5 mg/kg/injection, schedule: Q01DX009 (ip), vehicle: saline.
[6] abbreviates: dose: 25.0 mg/kg/injection, schedule: Q01DX009 (ip), vehicle: saline.
Where [7] appears, read: dose: 50.0 mg/kg/injection, schedule: Q01DX009 (ip), vehicle: saline.
Where [8] appears, read: dose: 100.0 mg/kg/injection, schedule: Q01DX009 (ip), vehicle: Klucel (hydroxypropylcellulose) (HPC).
Setting [9] is: dose: 200.0 mg/kg/injection, schedule: Q01DX009 (ip), vehicle: Klucel (hydroxypropylcellulose) (HPC).
The mark [10] stands for this setting: dose: 100.0 mg/kg/injection, schedule: Q04DX003 (ip), vehicle: saline with Tween-80.
[11] abbreviates: dose: 200.0 mg/kg/injection, schedule: Q04DX003 (ip), vehicle: saline with Tween-80.
The mark [12] stands for this setting: dose: 400.0 mg/kg/injection, schedule: Q04DX003 (ip), vehicle: saline with Tween-80.
[13] abbreviates: dose: 12.5 mg/kg/injection, schedule: Q01DX009 (ip), vehicle: saline with Tween-80.

Structures are written as SMILES. Several values for one entry are separate records, joined by “and”; a condition that tells them apart may be missing. Identical values can stand only once. Inconclusive results and toxic doses are left out.

Regarding `COC(=O)Nc1cn2cc(C(=O)c3cccs3)ccc2n1`, the T/C was 93 % of control (dose: 1.56 mg/kg/injection, schedule: Q01DX009 (ip), vehicle: Klucel (hydroxypropylcellulose) (HPC)); 98 % of control (dose: 3.12 mg/kg/injection, schedule: Q01DX009 (ip), vehicle: Klucel (hydroxypropylcellulose) (HPC)); 104 % of control (dose: 6.25 mg/kg/injection, schedule: Q01DX009 (ip), vehicle: Klucel (hydroxypropylcellulose) (HPC)); 113 % of control under setting [1]; 123 % of control under setting [2].

For the compound `O=C(Nc1ccccc1O)/C(Cl)=C/Cl`, the T/C by setting is: under setting [1], 92 % of control; under setting [2], 93 % of control; under setting [3], 90 % of control.

For the compound `CN1CCN(C(c2ccccc2)c2ccc(Cl)cc2)CC1` (stereo not drawn), the T/C is, setting by setting: (dose: 3.12 mg/kg/injection, schedule: Q01DX009 (ip), vehicle: saline) 105 % of control; under setting [4], 105 % of control; under setting [5], 102 % of control; under setting [6], 102 % of control; under setting [7], 100 % of control.

As to `COc1cc(OC)c(NC(=O)c2ccccc2Cl)cc1Cl`, the T/C is 97 % of control under setting [8]; 102 % of control under setting [9]; 102 % of control (dose: 400.0 mg/kg/injection, schedule: Q01DX009 (ip), vehicle: Klucel (hydroxypropylcellulose) (HPC)).

For `CNC(=O)ON=C1CCC(CC2CCCCC2)CC1` (stereo not drawn), the T/C was 93 % of control under setting [2], 100 % of control under setting [3] and 103 % of control under setting [8].

Take `O=C(NCCO)Nc1ccc(Cl)c(Cl)c1`: the T/C is 102 % of control (dose: 90.0 mg/kg/injection, schedule: Q01DX009 (ip), vehicle: other); 100 % of control (dose: 100.0 mg/kg/injection, schedule: Q01DX009 (ip), vehicle: other); 94 % of control (dose: 200.0 mg/kg/injection, schedule: Q01DX009 (ip), vehicle: other); 87 % of control (dose: 300.0 mg/kg/injection, schedule: Q01DX009 (ip), vehicle: other); 90 % of control (dose: 400.0 mg/kg/injection, schedule: Q01DX009 (ip), vehicle: other).

Consider `COc1ccc(C(=O)C(C)Br)c(OCc2ccccc2)c1OC` (stereo not drawn), for which the T/C (dose: 100.0 mg/kg/injection, schedule: Q01DX009 (ip), vehicle: saline with Tween-80) was 95 % of control; the T/C under setting [10] was 94 % of control; the T/C (dose: 200.0 mg/kg/injection, schedule: Q01DX009 (ip), vehicle: saline with Tween-80) was 87 % of control; the T/C under setting [11] was 100 % of control; the T/C under setting [12] was 97 % of control.

For `[Cl][Pt+2][Cl].[NH-]c1cc(Cl)c(Cl)c(Cl)c1[NH-]`, the T/C reads like this: (dose: 1.25 mg/kg/injection, schedule: Q01DX009 (ip), vehicle: saline with Tween-80) 98 % of control; (dose: 2.5 mg/kg/injection, schedule: Q01DX009 (ip), vehicle: saline with Tween-80) 104 % of control; (dose: 5.0 mg/kg/injection, schedule: Q01DX009 (ip), vehicle: saline with Tween-80) 103 % of control; (dose: 10.0 mg/kg/injection, schedule: Q01DX009 (ip), vehicle: saline with Tween-80) 110 % of control; (dose: 20.0 mg/kg/injection, schedule: Q01DX009 (ip), vehicle: saline with Tween-80) 113 % of control; (dose: 40.0 mg/kg/injection, schedule: Q01DX009 (ip), vehicle: saline with Tween-80) 117 % of control.

On to `CCCCCCCCCCCCCC(=O)N(C)C`, for which the T/C reads like this: under setting [5], 97 % of control; under setting [6], 97 % of control; (dose: 50.0 mg/kg/injection, schedule: Q01DX009 (ip), vehicle: saline with Tween-80) 93 % of control.

With `CCCC[S][Sn]([CH2]CCC)([CH2]CCC)[S]CCCC`, the T/C reads like this: (dose: 0.19 mg/kg/injection, schedule: Q01DX009 (ip), vehicle: saline with Tween-80) 98 % of control; (dose: 0.38 mg/kg/injection, schedule: Q01DX009 (ip), vehicle: saline with Tween-80) 98 % of control; (dose: 0.75 mg/kg/injection, schedule: Q01DX009 (ip), vehicle: saline with Tween-80) 99 % of control.

As for `Cc1cc(N(CC(C)Br)CC(C)Br)ccc1N=Nc1ccccc1C(=O)O` (stereo not drawn), under setting [13], the T/C is 165 % of control and 185 % of control.

For the compound `CCN(CC)CCOC(=O)N(c1ccccc1)c1ccccc1`, the T/C runs as follows: under setting [4], 104 % of control; under setting [5], 100 % of control; under setting [6], 104 % of control; under setting [7], 95 % of control; (dose: 100.0 mg/kg/injection, schedule: Q01DX009 (ip), vehicle: saline) 86 % of control.

`c1ccc(N2CCOCC2)cc1`: the T/C is 96 % of control under setting [8] and 96 % of control under setting [9].

Consider `CCOC(=O)N1c2ccccc2C=CC1OCC` (stereo not drawn), for which the T/C reads like this: (dose: 6.25 mg/kg/injection, schedule: Q04DX003 (ip), vehicle: Klucel (hydroxypropylcellulose) (HPC)) 105 % of control; (dose: 12.5 mg/kg/injection, schedule: Q04DX003 (ip), vehicle: Klucel (hydroxypropylcellulose) (HPC)) 105 % of control; (dose: 25.0 mg/kg/injection, schedule: Q04DX003 (ip), vehicle: Klucel (hydroxypropylcellulose) (HPC)) 89 % of control and 105 % of control.

Consider `[N-]=[N+]=CC(=O)CCC(N)C(=O)O` (stereo not drawn), for which the T/C runs as follows: (dose: 0.03 mg/kg/injection, schedule: Q01DX009 (ip), vehicle: saline with Tween-80) 95 % of control; (dose: 0.05 mg/kg/injection, schedule: Q01DX009 (ip), vehicle: saline) 115 % of control; (dose: 0.06 mg/kg/injection, schedule: Q01DX009 (ip), vehicle: saline with Tween-80) 91 % of control; (dose: 0.1 mg/kg/injection, schedule: Q01DX009 (ip), vehicle: saline) 104 % of control; (dose: 0.12 mg/kg/injection, schedule: Q01DX009 (ip), vehicle: saline with Tween-80) 95 % of control; (dose: 0.13 mg/kg/injection, schedule: Q01DX009 (ip), vehicle: saline) 102 % of control. Further, the T/C reads like this: (dose: 6.2 micrograms/kg/injection, schedule: Q01DX009 (ip), vehicle: saline) 91 % of control; (dose: 12.5 micrograms/kg/injection, schedule: Q01DX009 (ip), vehicle: saline) 92 % of control; (dose: 25.0 micrograms/kg/injection, schedule: Q01DX009 (ip), vehicle: saline) 109 % of control.

As for `CCCCCCCCCCCC[N+]1(CCCCCCCCCCCC)CCCC(C)C1` (stereo not drawn), the T/C runs as follows: (dose: 0.09 mg/kg/injection, schedule: Q01DX009 (ip), vehicle: Klucel (hydroxypropylcellulose) (HPC)) 95 % of control; (dose: 0.18 mg/kg/injection, schedule: Q01DX009 (ip), vehicle: Klucel (hydroxypropylcellulose) (HPC)) 97 % of control; (dose: 0.37 mg/kg/injection, schedule: Q01DX009 (ip), vehicle: Klucel (hydroxypropylcellulose) (HPC)) 93 % of control and 95 % of control.

Consider `CNc1ccc(C(=O)O)cc1OC`, for which the T/C by setting is: under setting [10], 95 % of control; under setting [11], 91 % of control; under setting [12], 90 % of control.

For the compound `CCOC(=O)c1[nH]cnc1/N=N/N(C)CCO`, the T/C is 104 % of control (dose: 12.5 mg/kg/injection, schedule: Q01DX009 (ip), vehicle: carboxymethylcellulose (CMC)); 118 % of control (dose: 25.0 mg/kg/injection, schedule: Q01DX009 (ip), vehicle: carboxymethylcellulose (CMC)); 95 % of control (dose: 50.0 mg/kg/injection, schedule: Q01DX009 (ip), vehicle: carboxymethylcellulose (CMC)); 100 % of control (dose: 100.0 mg/kg/injection, schedule: Q01DX009 (ip), vehicle: carboxymethylcellulose (CMC)); 113 % of control (dose: 200.0 mg/kg/injection, schedule: Q01DX009 (ip), vehicle: carboxymethylcellulose (CMC)).

Turning to `CCCC(=O)c1ccc(OC)c(OC)c1`, the T/C reads like this: under setting [3], 86 % of control; under setting [8], 93 % of control; under setting [9], 96 % of control.

As for `CCN(C(=O)Nc1ccccc1)c1ccccc1C`, the T/C reads like this: (dose: 6.25 mg/kg/injection, schedule: Q01DX009 (ip), vehicle: saline with Tween-80) 100 % of control; under setting [13], 88 % of control; (dose: 25.0 mg/kg/injection, schedule: Q01DX009 (ip), vehicle: saline with Tween-80) 94 % of control.
